According to patent US7687434B2, “Method of improving yield and vigor of plants” (Monsanto Technology, LLC, priority 2000, dated 2010):
≈ marks a conversion by molar mass, not a printed value.

Key:
[1] = tested on: Fusarium oxysporum var. pisi race1 33-10; assay: In vitro inhibition of mycelial growth on silthiopham-amended agar; assay type: cell-based; for ACTIVITY RATING (0-3): key: 0 = no; 1 = weak; 2 = good; 3 = excellent
[2] = tested on: Fusarium solani, var. coeruleum 4-2; assay: as above; assay type: cell-based; for ACTIVITY RATING (0-3): key: 0 = no; 1 = weak; 2 = good; 3 = excellent
[3] = tested on: microorganisms that are known to be soybean pathogens; assay: In vitro inhibition of mycelial growth, summary for soybean pathogens; assay type: cell-based; conditions: summary of Table 6
[4] = tested on: Fusarium oxysporum var. pisi race1 33-9; assay: In vitro inhibition of mycelial growth on silthiopham-amended agar; assay type: cell-based; for ACTIVITY RATING (0-3): key: 0 = no; 1 = weak; 2 = good; 3 = excellent
[5] = tested on: Gaeumannomyces graminis var. tritici; assay: as above; assay type: cell-based; for ACTIVITY RATING (0-3): key: 0 = no; 1 = weak; 2 = good; 3 = excellent
Rhizoctonia solani 15-9 = assay: as above; assay type: cell-based; for ACTIVITY RATING (0-3): key: 0 = no; 1 = weak; 2 = good; 3 = excellent
[6] = tested on: Fusarium solani, var. pisi 34-2; assay: as above; assay type: cell-based; for ACTIVITY RATING (0-3): key: 0 = no; 1 = weak; 2 = good; 3 = excellent
Septoria nodorum = assay: as above; assay type: cell-based; conditions: Glum blotch; note: key: 0 = no; 1 = weak; 2 = good; 3 = excellent
[7] = tested on: Fusarium solani, var. coeruleum 4-5; assay: as above; assay type: cell-based; for ACTIVITY RATING (0-3): key: 0 = no; 1 = weak; 2 = good; 3 = excellent
Phytopthera infestans = assay type: cell-based; conditions: Late blight
[8] = tested on: Fusarium solani, var. pisi 34-1; assay: In vitro inhibition of mycelial growth on silthiopham-amended agar; assay type: cell-based; for ACTIVITY RATING (0-3): key: 0 = no; 1 = weak; 2 = good; 3 = excellent
Colletotrichum trifolii = assay: as above; assay type: cell-based; conditions: Root rot in alfalfa; note: key: 0 = no; 1 = weak; 2 = good; 3 = excellent
[9] = tested on: soybean plants (CSR2121 variety); assay: Soybean seed treatment field trial, upper Midwestern United States; assay type: in vivo
Rhizoctonia solani 15-10 = assay: In vitro inhibition of mycelial growth on silthiopham-amended agar; assay type: cell-based; for ACTIVITY RATING (0-3): key: 0 = no; 1 = weak; 2 = good; 3 = excellent
[10] = tested on: Fusarium oxysporum var. pisi race1 33-11; assay: as above; assay type: cell-based; for ACTIVITY RATING (0-3): key: 0 = no; 1 = weak; 2 = good; 3 = excellent
soybean plants = assay: Soybean seed treatment field trial on five farms in South Africa; assay type: in vivo
[11] = Fusarium oxysporum, 96 h, Czapek-Dox agar, 4 days at 18° C., log-log fit
[12] = Fusarium solani, 96 h, Czapek-Dox agar, 4 days at 18° C., log-log fit
[13] = seed treatment prior to planting, at plant maturity

C=CCNC(=O)c1c([Si](C)(C)C)sc(C)c1C [Silthiopham, 4,5-dimethyl-N-(2-propenyl)-2-(trimethylsilyl)-3-thiophenecarboxamide]
EC50 [1, 11]: 112 µg/mL (≈ 421 µM) | ACTIVITY RATING (0-3) ([1]; Root rot): 0 | EC50 [2, 12]: 113 µg/mL (≈ 423 µM) | ACTIVITY RATING (0-3) ([2]; Root rot): 0 | activity against soybean pathogens (in words) [3]: little or no activity | EC50 [4, 11]: 109 µg/mL (≈ 407 µM) | ACTIVITY RATING (0-3) ([4]; Root rot): 0 | EC50 ([5]; Gaeumannomyces graminis, 96 h, Czapek-Dox agar, 4 days at 18° C., log-log fit): 0.001 µg/mL (≈ 0.00374 µM) | ACTIVITY RATING (0-3) ([5]; Take-all disease in cereals): 3 | activity against Gaerumannomyces graminis var. tritici (in words) ([5]; summary of Table 6): excellent activity | EC50 (Rhizoctonia solani 15-9; Rhizoctonia solani, 159, 96 h, Czapek-Dox agar, 4 days at 18° C., log-log fit): 162 µg/mL (≈ 607 µM) | ACTIVITY RATING (0-3) (Rhizoctonia solani 15-9; Sheath blight): 0 | EC50 [6, 12]: 106 µg/mL (≈ 398 µM) | ACTIVITY RATING (0-3) ([6]; Root rot): 0 | ACTIVITY RATING (0-3) (Septoria nodorum): 0 | EC50 [7, 12]: 127 µg/mL (≈ 476 µM) | ACTIVITY RATING (0-3) ([7]; Root rot): 0 | ACTIVITY RATING (0-3) (Phytopthera infestans): 0 | EC50 [8, 12]: 126 µg/mL (≈ 470 µM) | ACTIVITY RATING (0-3) ([8]; Root rot): 0 | ACTIVITY RATING (0-3) (Colletotrichum trifolii): 0 | improvement in yield compared with untreated control beans ([9]; FIG. 3, soybean yield): no improvement over the untreated control | seed weight increase (beans larger) than untreated control beans ([9]; FIG. 4): performed comparably with untreated beans | plant height increase (plants taller) than untreated control beans ([9]; FIG. 5): performed comparably with untreated beans | Canopy (% coverage) ([9]; percent of canopy closure, 100% is total coverage): 78% | Plant Height [9, 13]: 22.8 inches | Seed Weight [9, 13]: 11.0 gm/100 seeds | Grain Yield ([9]; seed treatment prior to planting, determined at plant maturity, adjusted to 13% moisture): 36.4 bu/ac | Vigor (1 worst-9 best) ([9]; standard 1-9 scale, 1 worst, 9 best and most vigorous): 6 | EC50 (Rhizoctonia solani 15-10; Rhizoctonia solani, 1510, 96 h, Czapek-Dox agar, 4 days at 18° C., log-log fit): 132 µg/mL (≈ 494 µM) | ACTIVITY RATING (0-3) (Rhizoctonia solani 15-10; Sheath blight): 0 | EC50 ([10]; Fusarium oxysporum, 96 h): 36100 µg/mL (≈ 135000 µM) | ACTIVITY RATING (0-3) ([10]; Root rot): 0 | SOYBEAN YIELD (soybean plants; Avg. of farms 3-5 (dryland)): 1949 kg/ha | SOYBEAN YIELD (soybean plants; Farm 4, dryland, cultivar SNK444, sand clay 12%): 1844 kg/ha | SOYBEAN YIELD (soybean plants; Farm 5, dryland, cultivar SNK400, clay 40%): 2054 kg/ha | grain yield, statistical comparison (soybean plants; combination vs standard Mollyflo+Bradyrhizobium, silthiopham alone vs non-treated control): did not significantly differ from the non-treated control | visual appearance of vegetative growth (soybean plants; compared to the standard Mollyflo+inoculant treatment): appeared visually greener and more vigorous | number of nodules on plant roots (soybean plants; farms 4 and 5, FIGS. 6 and 7, plants in 400-mm rows): did not substantially affect the number of nodules | plant weight (soybean plants; farms 4 and 5, FIGS. 8 and 9, 2 meters per plot): no effect on plant weight | visual appearance of nodules (soybean plants; where silthiopham was included in the treatment): Nodules visually appeared healthier
